# How the values were obtained:
# [1] = system: human erythrocyte membranes; assay: Inhibition of lipoperoxidation in erythrocyte membranes; format: biochemical
# Description: The inhibition of lipid peroxidation was determined using human erythrocyte membranes. The products were tested at 500 µg/mL.
# AGS cells [2] = assay: Sodium taurocholate (NaT)-induced damage to AGS cells, viability by neutral red uptake; conditions: 60 min pre-treatment, then 10 mM NaT 30 min
# Description: The model of AGS cells damaged by sodium taurocholate (NaT) was used to determine the gastroprotective effect of the compounds against the bile-induced injury on the gastric mucosa [10].
# The effect of sodium taurocholate (NaT) on cell viability was determined according to Romano et al. [10]. […] Then, 10 mM NaT was added to all wells for 30 min. Un-treated cells were used as controls. Sucralfate (4 mg/mL) was used as reference compound. After incubation, the neutral red uptake (NRU, 0.05 mg/mL) assay was carried out to determine cell viability [4, 33].
# AGS cells [3] = assay: Cellular reduced glutathione (GSH) content in AGS cells co-incubated with 4% ethanol; format: cell-based, human; conditions: 12 h; for percent increase of GSH content compared with untreated controls: AGS cells
# MRC-5 fibroblasts = assay: Proliferation assay of MRC-5 fibroblasts, neutral red uptake; format: cell-based, human; conditions: 4 days
# Description: Human lung fibroblasts MRC-5 (ATCC CCL-171) were grown as monolayers in minimum essential Eagle medium (MEM), with Earle’s salts, 2 mM L-glutamine and 2.2 g/L sodium bicarbonate, supplemented with 10% heat-inactivated fetal bovine serum (FBS), 100 IU/mL penicillin and 100 µg/mL streptomycin in a humidified incubator with 5% CO2 in air at 37 °C. For the subsequent experiments, cells were plated at a density of 2.5 × 10^4 cells/mL in 96-well plates.
# Untreated cells were used as controls. Cell viability was determined at the end of the incubation by means of the NRU assay. The neutral red concentration was 0.05 mg/mL [4, 33].
# AGS cells [4] = assay: Prostaglandin E2 (PGE2) content of AGS cells, enzyme immunoassay; format: cell-based, human
compound,measurement,setting,value
"CC(C)c1cc2c(c(O)c1O)[C@@]1(C(=O)O)CCCC(C)(C)[C@@H]1CC2 [CA, Carnosic acid]","Inhibition of the lipoperoxidation, IC50",[1],IC50 2.4 ± 0.18 µg/mL
same,percent cytoprotective effect compared to NaT control,AGS cells [2]; 6 µM,23%
same,percent cytoprotective effect compared to NaT control,AGS cells [2]; 12 µM,22%
same,percent increase of GSH content compared with untreated controls,AGS cells [3]; 4.5 µM,19%
COC(=O)[C@]12CCCC(C)(C)C1CCc1cc(C(C)C)c(OC)c(OC)c12 (stereo partly shown) [Compound 2],"Inhibition of the lipoperoxidation, percent effect at 500 µg/mL",[1],53%
CCCOC(=O)[C@]12CCCC(C)(C)C1CCc1cc(C(C)C)c(OC)c(OCCC)c12 (stereo partly shown) [Compound 18],stimulation of fibroblast proliferation compared to untreated controls,MRC-5 fibroblasts; 32 µM,16%
same,stimulation of fibroblast proliferation compared to untreated controls,MRC-5 fibroblasts; 63 µM,22%
COC(=O)[C@]12CCCC(C)(C)C1CCc1cc(C(C)C)c(OC(=O)Cc3ccccc3)c(OC(=O)Cc3ccccc3)c12 (stereo partly shown) [Compound 11],"Inhibition of the lipoperoxidation, IC50",[1],IC50 140.4 ± 12.6 µg/mL
same,percent cytoprotective effect compared to NaT control,AGS cells [2]; 62.5 µM,12%
"COC(=O)[C@]12CCCC(C)(C)C1CCc1cc(C(C)C)c(OC)c(O)c12 (stereo partly shown) [Compound 15, 12-O-metylmethylcarnosate]","Inhibition of the lipoperoxidation, IC50",[1],IC50 165.0 ± 14.9 µg/mL
same,percent increase of GSH content compared with untreated controls,AGS cells [3]; 4.5 µM,11%
"O.Oc1cc(O)c2c(c1)O[C@H](c1ccc(O)c(O)c1)[C@@H](O)C2 [Catechin, reference compound]","Inhibition of the lipoperoxidation, IC50",[1],IC50 75.4 ± 6.0 µg/mL
CCC(=O)Oc1c(C(C)C)cc2c(c1O)[C@@]1(C(=O)OC)CCCC(C)(C)C1CC2 (stereo partly shown) [Compound 6],"Inhibition of the lipoperoxidation, percent effect at 500 µg/mL",[1],42%
CCCC(=O)Oc1c(C(C)C)cc2c(c1OC(=O)CCC)[C@@]1(C(=O)OC)CCCC(C)(C)C1CC2 (stereo partly shown) [Compound 7],stimulation of fibroblast proliferation compared to untreated controls,MRC-5 fibroblasts; 16 µM,8%
same,"Inhibition of the lipoperoxidation, percent effect at 500 µg/mL",[1],34%
"COc1ccc2c(c1)c(CC(=O)O)c(C)n2C(=O)c1ccc(Cl)cc1 [Indomethacin, reference compound]",PGE2,"AGS cells [4]; 100 µM, 1 h, control 24.9 ± 2.1",8.5 ± 1.3 pg/mL
"COC(=O)[C@]12CCCC(C)(C)C1CCc1cc(C(C)C)c(OC(=O)c3cccnc3)c(OC(=O)c3cccnc3)c12 (stereo partly shown) [Compound 10, 11,12-O-dinicotinylmethylcarnosate]","Inhibition of the lipoperoxidation, percent effect at 500 µg/mL",[1],22%
same,percent increase of GSH content compared with untreated controls,AGS cells [3]; 1.4 µM,14%
CC(=O)Oc1c(C(C)C)cc2c(c1OC(C)=O)[C@@]1(C(=O)O)CCCC(C)(C)C1CC2 (stereo partly shown) [Compound 3],"Inhibition of the lipoperoxidation, percent effect at 500 µg/mL",[1],11%
same,percent cytoprotective effect compared to NaT control,AGS cells [2]; 10.5 µM,13%
same,percent cytoprotective effect compared to NaT control,AGS cells [2]; 21 µM,15%
same,percent cytoprotective effect compared to NaT control,AGS cells [2]; 42 µM,13%
"CC(=O)N[C@@H](CS)C(=O)O [NAC, N-acetyl-L-cysteine, reference compound]",GSH (nmol/10^6 cells),"AGS cells [3]; 750 µM, control 3.6 ± 0.2",4.0 ± 0.2 nmol/10^6 cells
same,percent increase of GSH content compared with untreated controls,AGS cells [3]; 750 µM,11%
"COC(=O)[C@]12CCCC(C)(C)C1CCc1cc(C(C)C)c(OC(=O)CCCc3c[nH]c4ccccc34)c(O)c12 (stereo partly shown) [Compound 13, 12-O-indolebutyrylmethylcarnosate]","Inhibition of the lipoperoxidation, percent effect at 500 µg/mL",[1],49%
same,percent cytoprotective effect compared to NaT control,AGS cells [2]; 2.5 µM,12%
same,percent cytoprotective effect compared to NaT control,AGS cells [2]; 5 µM,8%
same,increase of PGE2 content compared to controls,"AGS cells [4]; 20 µM, AGS cells",2.7 fold
same,percent increase of GSH content compared with untreated controls,AGS cells [3]; 2.0 µM,11%
"COc1c(C(C)C)cc2c(c1O)[C@@]1(C(=O)O)CCCC(C)(C)C1CC2 (stereo partly shown) [Compound 14, 12-O-methylcarnosic acid]","Inhibition of the lipoperoxidation, IC50",[1],IC50 186.3 ± 16.9 µg/mL
same,percent cytoprotective effect compared to NaT control,AGS cells [2]; 2.8 µM,12%
same,percent cytoprotective effect compared to NaT control,AGS cells [2]; 5.6 µM,5%
same,percent increase of GSH content compared with untreated controls,AGS cells [3]; 2.3 µM,8%
COC(=O)[C@]12CCCC(C)(C)C1CCc1cc(C(C)C)c(OC)c(OC(C)=O)c12 (stereo partly shown) [Compound 17],stimulation of fibroblast proliferation compared to untreated controls,MRC-5 fibroblasts; 23 µM,7%
COC(=O)[C@]12CCCC(C)(C)C1CCc1cc(C(C)C)c(O)c(O)c12 (stereo partly shown) [Compound 1],"Inhibition of the lipoperoxidation, IC50",[1],IC50 34.4 ± 4.1 µg/mL
same,percent cytoprotective effect compared to NaT control,AGS cells [2]; 3 µM,13%
COC(=O)[C@]12CCCC(C)(C)C1CCc1cc(C(C)C)c(OC(=O)c3ccccc3)c(OC(=O)c3ccccc3)c12 (stereo partly shown) [Compound 9],"Inhibition of the lipoperoxidation, IC50",[1],IC50 147.2 ± 16.6 µg/mL
COC(=O)[C@]12CCCC(C)(C)C1CCc1cc(C(C)C)c(OC(=O)CCl)c(OC(=O)CCl)c12 (stereo partly shown) [Compound 5],"Inhibition of the lipoperoxidation, IC50",[1],IC50 27.6 ± 3.0 µg/mL
same,percent cytoprotective effect compared to NaT control,AGS cells [2]; 1.1 µM,17%
same,percent cytoprotective effect compared to NaT control,AGS cells [2]; 2.3 µM,15%
same,percent cytoprotective effect compared to NaT control,AGS cells [2]; 4.5 µM,8%
COC(=O)[C@]12CCCC(C)(C)C1CCc1cc(C(C)C)c(OC(=O)C(C)C)c(O)c12 (stereo partly shown) [Compound 8],"Inhibition of the lipoperoxidation, IC50",[1],IC50 13.6 ± 1.48 µg/mL
CCCOc1c(OC)c(C(C)C)cc2c1[C@@]1(C(=O)OC)CCCC(C)(C)C1CC2 (stereo partly shown) [Compound 16],growth stimulation compared to untreated controls,MRC-5 fibroblasts; 12 µM,8%
same,growth stimulation compared to untreated controls,MRC-5 fibroblasts; 24 µM,18%
same,"Inhibition of the lipoperoxidation, percent effect at 500 µg/mL",[1],46%
COC(=O)[C@]12CCCC(C)(C)C1CCc1cc(C(C)C)c(OC(=O)Cc3c[nH]c4ccccc34)c(OC(=O)Cc3c[nH]c4ccccc34)c12 (stereo partly shown) [Compound 12],"Inhibition of the lipoperoxidation, percent effect at 500 µg/mL",[1],38%

# From PMC6270983, “Gastroprotective Mechanisms of Action of Semisynthetic Carnosic Acid Derivatives in Human Cells” (Molecules, 2014)
